Test results from the supplement of paper PMC10307832.

compound: C[C@@H](C(=O)N[C@@H](C1CCCCC1)C(=O)N2CCC[C@H]2C(=O)N[C@@H]3[C@@H](CC4=CC=CC=C34)OCC#CC#CCO[C@@H]5CC6=CC=CC=C6[C@@H]5NC(=O)[C@@H]7CCCN7C(=O)[C@H](C8CCCCC8)NC(=O)[C@H](C)NC)NC [AZD5582] + O=C(CCCCCCC(=O)Nc1ccccc1)NO [Vorinostat] (partner 1 µM); assay: relative viability (nuclei count vs DMSO), 5 days (fraction); higher = more cells survive; details: first compound 0.01581 µM
Procedure, shortened: (§1)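 Cells from lung cancer lines were seeded into 1536-well plates and, one day later, dosed by pin tool. Treatments were either a single drug or a fixed dose of an anchor drug with five library-drug doses (not always all listed) in √10 steps. After 5 days, nuclei were stained in a one-step fixation (final 0.05% Triton X-100, 1% formaldehyde, 1 ug/ml Hoechst) and counted on 4× images, and relative viability is the treated-to-vehicle nuclei ratio, as the median of duplicate plates.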

Cell Line | relative viability
HCC-44 | 1.08
HCC-78 | 0.438
HCC-366 | 0.186
HCC-827 | 0.694
HOP-62 | 0.41
LC-2-ad | 0.704
LCLC-97TM1 | 0.159
LCLC-103H | 0.429
LK-2 | 0.236
LOU-NH91 | 0.794
LU99A | 0.466
LXF-289 | 0.641
NCI-H23 | 0.483
NCI-H322M | 0.97
NCI-H358 | 0.678
NCI-H441 | 0.889
NCI-H460 | 0.697
NCI-H520 | 0.758
NCI-H522 | 0.828
NCI-H596 | 0.629
NCI-H647 | 0.635

same assay, conditions: first compound 0.05 µM

Cell Line | relative viability
201T | 1.22
A-427 | 0.904
ABC-1 | 1.08
BEN | 0.555
CAL-12T | 0.754
COR-L23 | 0.587
COR-L 105 | 0.878
ChaGo-K-1 | 0.739
EKVX | 0.932
EMC-BAC-2 | 0.546
EPLC-272H | 0.074
H3255 | 0.48
HARA | 0.672
HCC-15 | 0.967
HCC-44 | 1.04
HCC-78 | 0.366
HCC-366 | 0.425
HCC-827 | 0.822
HOP-62 | 0.547

Cell Line | relative viability
IA-LM | 1
LC-2-ad | 0.804
LCLC-97TM1 | 0.343
LCLC-103H | 0.636
LK-2 | 0.304
LOU-NH91 | 0.842
LU99A | 0.591
LXF-289 | 0.905
NCI-H23 | 0.448
NCI-H322M | 1.17
NCI-H358 | 0.714
NCI-H441 | 0.921
NCI-H460 | 1.01
NCI-H520 | 0.712
NCI-H522 | 0.957
NCI-H596 | 0.527
NCI-H647 | 0.585
NCI-H1648 | 0.476

compound: C[C@@H](C(=O)N[C@@H](C1CCCCC1)C(=O)N2CCC[C@H]2C(=O)N[C@@H]3[C@@H](CC4=CC=CC=C34)OCC#CC#CCO[C@@H]5CC6=CC=CC=C6[C@@H]5NC(=O)[C@@H]7CCCN7C(=O)[C@H](C8CCCCC8)NC(=O)[C@H](C)NC)NC [AZD5582] + CCNC(=O)c1noc(-c2cc(C(C)C)c(O)cc2O)c1-c1ccc(CN2CCOCC2)cc1 [Luminespib] (partner 0.01 µM); assay: as above; details: first compound 0.001581 µM
Procedure, shortened: as §1

Cell Line | relative viability
201T | 1.11
A-427 | 0.665
ABC-1 | 0.518
BEN | 0.332
CAL-12T | 0.192
COR-L23 | 0.635
COR-L 105 | 0.619
ChaGo-K-1 | 0.518
EKVX | 0.859
EMC-BAC-2 | 1.06
EPLC-272H | 0.24
H3255 | 0.731
HARA | 0.39
HCC-15 | 0.264
HCC-44 | 0.921
HCC-827 | 0.61
HOP-62 | 0.837
